Legend:
Assay in all cases: relative viability (nuclei count vs DMSO), 5 days (fraction); higher = more cells survive
[1] = compound: C1=CC2=NC=CN=C2C=C1/C=C/3\C(=O)NC(=O)S3 + O=C(CCCCCCC(=O)Nc1ccccc1)NO [Vorinostat] (partner 1 µM)
In short: (§1)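 Relative viability equals treated-well nuclei counts divided by vehicle-well nuclei counts. Counts came from 4× images of lung cancer cell lines grown in 1536-well plates for 5 days after pin-tool dosing on the day after seeding. Dosing used one drug alone or a fixed anchor-drug dose plus five library-drug doses (not always all listed) in √10 steps, and values are medians of duplicate plates.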

BGJ398 + Luminespib = compound: CCN1CCN(c2ccc(Nc3cc(N(C)C(=O)Nc4c(Cl)c(OC)cc(OC)c4Cl)ncn3)cc2)CC1 [BGJ398] + CCNC(=O)c1noc(-c2cc(C(C)C)c(O)cc2O)c1-c1ccc(CN2CCOCC2)cc1 [Luminespib] (partner 0.01 µM)
In short: as §1

BGJ398 + Tozasertib = compound: CCN1CCN(c2ccc(Nc3cc(N(C)C(=O)Nc4c(Cl)c(OC)cc(OC)c4Cl)ncn3)cc2)CC1 [BGJ398] + Cc1cc(Nc2cc(N3CCN(C)CC3)nc(Sc3ccc(NC(=O)C4CC4)cc3)n2)n[nH]1 [Tozasertib] (partner 0.1 µM)
In short: as §1

BGJ398 + Olaparib = compound: CCN1CCN(c2ccc(Nc3cc(N(C)C(=O)Nc4c(Cl)c(OC)cc(OC)c4Cl)ncn3)cc2)CC1 [BGJ398] + O=C(c1cc(Cc2n[nH]c(=O)c3ccccc23)ccc1F)N1CCN(C(=O)C2CC2)CC1 [Olaparib] (partner 8 µM)
In short: as §1

Row | Cell Line | relative viability ([1]; first compound 0.02 µM) | relative viability ([1]; first compound 0.06325 µM) | relative viability ([1]; first compound 0.2 µM) | relative viability ([1]; first compound 0.6325 µM) | relative viability ([1]; first compound 2 µM) | relative viability (BGJ398 + Luminespib; first compound 0.01 µM) | relative viability (BGJ398 + Luminespib; first compound 0.03162 µM) | relative viability (BGJ398 + Luminespib; first compound 0.1 µM) | relative viability (BGJ398 + Luminespib; first compound 0.3162 µM) | relative viability (BGJ398 + Luminespib; first compound 1 µM) | relative viability (BGJ398 + Tozasertib; first compound 0.01 µM) | relative viability (BGJ398 + Tozasertib; first compound 0.03162 µM) | relative viability (BGJ398 + Tozasertib; first compound 0.1 µM) | relative viability (BGJ398 + Tozasertib; first compound 0.3162 µM) | relative viability (BGJ398 + Tozasertib; first compound 1 µM) | relative viability (BGJ398 + Olaparib; first compound 0.01 µM) | relative viability (BGJ398 + Olaparib; first compound 0.03162 µM) | relative viability (BGJ398 + Olaparib; first compound 0.1 µM) | relative viability (BGJ398 + Olaparib; first compound 0.3162 µM) | relative viability (BGJ398 + Olaparib; first compound 1 µM)
1 | NCI-H522 | 0.768 | 0.839 | 1.22 | 0.75 | 0.795 | 1.21 | 1.4 | 1.09 | 0.99 | 1.04 | 0.5 | 0.552 | 0.445 | 0.586 | 0.483 | 0.714 | 0.684 | 0.607 | 0.651 | 0.621
2 | HCC-15 | 0.733 | 0.737 | 0.872 | 0.844 | 0.702 | 0.316 | 0.258 | 0.294 | 0.37 | 0.397 | 0.351 | 0.43 | 0.436 | 0.349 | 0.389 | 0.699 | 0.749 | 0.712 | 0.732 | 0.725
3 | A-427 | 0.791 | 0.877 | 0.888 | 0.864 | 0.947 | 0.903 | 0.907 | 1 | 0.794 | 0.81 | 0.192 | 0.153 | 0.162 | 0.179 | 0.152 | 0.746 | 0.713 | 0.761 | 0.736 | 0.538
4 | NCI-H2228 | 0.844 | 0.821 | 0.616 | 0.572 | 0.719 | 0.111 | 0.141 | 0.152 | 0.139 | 0.128 | 0.235 | 0.255 | 0.224 | 0.188 | 0.204 | 0.606 | 0.765 | 0.512 | 0.594 | 0.441
5 | NCI-H1734 | 0.846 |  | 0.907 | 0.767 | 0.556 | 0.178 | 0.179 | 0.22 | 0.171 | 0.17 | 0.259 | 0.266 | 0.222 | 0.258 | 0.26 | 0.504 | 0.622 | 0.627 | 0.609 | 0.607
6 | PC-14 | 0.799 | 0.713 | 1.01 | 0.689 | 0.571 | 0.151 |  | 0.119 |  | 0.134 | 0.575 |  | 0.666 |  | 0.621 | 0.322 | 0.346 | 0.254 | 0.289 | 0.27
7 | NCI-H1915 | 0.578 | 0.525 | 0.636 | 0.468 | 0.499 | 0.675 | 0.826 | 0.852 | 0.688 | 0.784 | 0.446 | 0.438 | 0.433 | 0.404 | 0.416 | 0.231 | 0.285 | 0.252 | 0.256 | 0.246
8 | NCI-H1666 | 0.912 | 0.927 | 0.968 | 0.984 | 0.785 | 1 | 0.998 | 0.99 | 1.04 | 0.988 | 0.702 | 0.619 | 0.606 | 0.587 | 0.558 | 0.759 | 0.77 | 0.81 | 0.725 | 0.679
9 | HCC-366 | 0.293 |  | 0.436 | 0.305 | 0.204 |  |  |  |  |  | 0.128 | 0.111 | 0.092 | 0.0966 | 0.0852 | 0.368 | 0.378 | 0.422 | 0.335 | 0.448
10 | SK-MES-1 | 0.925 | 0.998 | 1.08 | 1.08 | 0.829 | 0.8 | 0.784 | 0.843 | 0.799 | 0.844 | 0.87 | 0.892 | 0.829 | 0.785 | 0.857 | 0.709 | 0.754 | 0.786 | 0.659 | 0.679
11 | SW 1573 | 0.519 | 1.09 | 0.658 | 0.868 | 0.444 | 0.323 | 0.242 | 0.209 | 0.226 | 0.278 | 0.182 | 0.171 | 0.185 | 0.189 | 0.171 | 0.413 | 0.388 | 0.45 | 0.543 | 0.525
12 | NCI-H661 | 0.75 | 0.86 | 0.845 | 0.799 | 0.948 | 0.926 | 0.936 | 0.937 | 0.851 | 0.852 | 0.325 | 0.369 | 0.365 | 0.354 | 0.362 | 0.7 | 0.737 | 0.822 | 0.736 | 0.727
13 | PC-3 [JPC-3] | 0.939 | 0.874 | 0.92 | 0.766 | 0.654 | 0.63 |  | 0.737 | 0.721 | 0.712 | 0.958 |  | 0.867 | 0.829 | 0.842 | 1.12 |  | 1.26 |  | 1.15
14 | NCI-H1623 |  |  |  |  |  | 0.544 | 0.434 | 0.501 | 0.472 | 0.483 | 0.427 | 0.407 | 0.448 | 0.455 | 0.447 |  |  |  |  | 
15 | Calu-6 |  |  |  |  |  |  |  |  |  |  |  |  |  |  |  | 0.599 | 0.605 | 0.578 | 0.58 | 0.59

— the supplement of paper PMC10307832
